From patent US12612358B2, “Resorcinol-based compounds and uses thereof” (priority 2020, dated 2026)

Legend:
[1] = IV pharmacokinetics; assay type: in vivo; settings: 1 mpk
[2] = test system: PANC-1; assay: CellTiter-Glo cell proliferation, PANC-1 pancreatic cancer cells; assay type: cell-based, human
Excerpt: (§1) Cell culture and treatment of pancreatic cancer cell lines: Pancreatic cancer cells lines BxPC-3, SW1990, and PANC-1 used in the experiments presented herein can be obtained from ATCC. The cells can be cultured and passaged in complete growth medium (RPMI-1640, Dulbecco's Modified Eagle Medium, or Leibovitz's L-15 medium) that has been supplemented with fetal bovine serum to a final concentration of 10%.
(§2) Effects of Compound-5B on proliferation and Id-1 expression in pancreatic cell lines. Compound-5B was next tested for inhibition of cell viability/proliferation in the three pancreatic cancer cell lines and two primary patient-derived cancer cell lines. Compound-5B inhibited cell viability/proliferation of all the cancer cell lines (Table 2). The culturing condition for the pancreatic cell lines was similar to those used in the breast cancer lines, with the exception of the primary patient-derived pancreatic cancer cell lines (PANC9 and PANC13). For determining inhibition of cell proliferation in patient-derived pancreatic cancer cells were cultured in a T75 ultra low attachment flasks with DMEM/F12 media supplemented with B27, penicillin/streptomycin (10,000 u/mL), 50 µg/mL human epidermal growth factor (hEGF), 50 μg/mL human fibroblast growth factor, and 5 μg/mL heparin. Cells were plated in a 384-well plate and incubated for three days to promote the formation of tumorspheres. Cells were then treated with Compound-5B for three days. Cell proliferation of pancreatic cells in the presence of drug was measured using the CellTiter-Glo luminescent Assay and IC50 values were calculated (Table 2). The IC50 and corresponding 95% confidence limits (CL) were calculated using non-linear regression analysis.

[3] = Plasma protein binding (Eurofins ADME); assay type: in vitro ADME
Procedure: (§3) Evaluating ADME of Compound-5B in vitro. It is important to evaluate ADME first in culture as it allows for the selection of the best candidate for PK analysis in vivo. ADME analysis of Compound-5B was performed by Eurofins.

[4] = test system: 4T1 cells; assay: 4T1 lung metastasis model in BALB/c mice; assay type: in vivo, mouse; settings: 4T1 tail vein, i.p. once a day, six days a week, three weeks
Procedure: (§4) Antitumor activity of Compound-5B in vivo in breast cancer. Based on the activity of Compound-5B in culture, the antitumor activity of Compound-5B was tested in vivo in two models of breast cancer (FIG. 4). Compound-5B produced a potent inhibition of Id-1 expression in human MDA-MB231 cells (FIG. 1A). We also determined whether it produced a similar effect in mouse 4T1 breast cancer cells. This cell line is commonly used for seeding a lung metastatic model in mice. […] LC=loading control (FIG. 4A). […] Lung metastases were generated in BALB/c mice by tail vein injection of 4×10^4 4T1 cells. Two days after the injection, the tumor bearing mice were injected i.p. once a day, six days a week, with vehicle or Compound 5B three weeks. Lung metastasis % (total metastatic foci in treated/vehicle×100) was evaluated (FIG. 4B). […] Animals with established tumors (average volume of 100 mm^3) were randomized and treated once daily, 6 days a week, with i.p., injections of vehicle, or 1 mg/kg Compound-5B, tumors were measured once weekly by an operator blinded to the treatment groups. Changes in tumor volume (mm^3) were calculated as (length×width2)/2. *indicates statistically significant differences between vehicle and Compound-5B (p<0.05, Two-way ANOVA repeated measures, and Tukey's multiple comparisons test).

[5] = test system: MDA-MB231 cells; assay: MDA-MB231 mammary fat pad primary tumor model in athymic nu/nu mice; assay type: in vivo, mouse; settings: MDA-MB231, 1 mg/kg i.p. once daily, 6 days a week
Procedure: as §4

[6] = test system: cannabinoid receptors; assay: Cannabinoid receptor binding
Procedure: (§5) Eurofin's Kinome scan assay was used to screen Compound-5B against 468 kinases at 1 μM and 10 μM concentrations. […] In order to understand any potential pharmacological cross reactivity, a known contributor to clinical adverse drug reactions Compound-5B was tested in SAFETY scan E/IC50 ELECT.

[7] = test system: 468 kinases; assay: Eurofin's Kinome scan assay; settings: 1 μM and 10 μM
Procedure: as §5

[8] = Aqueous solubility (Eurofins ADME); assay type: physicochemical
Procedure: as §3

[9] = test system: Id-1; assay: Id-1 expression in MDA-MB231 cells (Western analysis); assay type: cell-based, human
Procedure: Quantitative Western analysis: Cells are cultured and treated in 6-well dishes. After the cells are washed twice with cold PBS, lysis buffer is added. The cells are then lysed by freezing for 10 min at −70° C. and then thawing at ambient temperature. The cell lysate is collected and the protein content is determined by using Bradford reagent. Equal amounts of protein are heated at 90° C. in Laemmli sample buffer which also included β-mercaptoethanol. The samples are then loaded onto a precast SDS-PAGE gel (Bio-Rad Laboratories, Hercules, CA). After which, proteins are then electroblotted onto an Immobilon membrane (Millipore, Billerica, MA) overnight at 2-4° C. The membrane is then blocked for 1 hour with 5% nonfat dry milk which included TBS+Tween. The membranes are then incubated with an anti-Id-1 primary antibody, and then an appropriate secondary antibody was used. Blots are incubated for 45 min and then washed 4 times with TBS+Tween for 15 min each. […]
Effects of Compound-5B on breast cancer cell proliferation, Id-1 expression and invasion in culture. […] The ability of the cells to migrate and invade in modified Boyden chambers was determined. The percentage relative invasion was calculated as the effect on treated cells/vehicle cells×100. […]

[10] = test system: SW1990; assay: CellTiter-Glo cell proliferation, SW1990 pancreatic cancer cells; assay type: cell-based; settings: Homo sapiens, read-out: IC50 category
Excerpt: as §1
Effects of Compound-5B on proliferation and Id-1 expression in pancreatic cell lines. Compound-5B was next tested for inhibition of cell viability/proliferation in the three pancreatic cancer cell lines and two primary patient-derived cancer cell lines. Compound-5B inhibited cell viability/proliferation of all the cancer cell lines (Table 2). The culturing condition for the pancreatic cell lines was similar to those used in the breast cancer lines, with the exception of the primary patient-derived pancreatic cancer cell lines (PANC9 and PANC13). […] Cell proliferation of pancreatic cells in the presence of drug was measured using the CellTiter-Glo luminescent Assay and IC50 values were calculated (Table 2). […]

[11] = molecular target: T1, HRH2 (Histamine receptor) (Homo sapiens, UniProt P25021); assay: SAFETY scan E/IC50 ELECT, HRH2; assay type: biochemical; settings: read-out: inhibition against HRH2 (mild)
T1 construct: purchased Eurofin's
T1 sequence (P25021 whole entry): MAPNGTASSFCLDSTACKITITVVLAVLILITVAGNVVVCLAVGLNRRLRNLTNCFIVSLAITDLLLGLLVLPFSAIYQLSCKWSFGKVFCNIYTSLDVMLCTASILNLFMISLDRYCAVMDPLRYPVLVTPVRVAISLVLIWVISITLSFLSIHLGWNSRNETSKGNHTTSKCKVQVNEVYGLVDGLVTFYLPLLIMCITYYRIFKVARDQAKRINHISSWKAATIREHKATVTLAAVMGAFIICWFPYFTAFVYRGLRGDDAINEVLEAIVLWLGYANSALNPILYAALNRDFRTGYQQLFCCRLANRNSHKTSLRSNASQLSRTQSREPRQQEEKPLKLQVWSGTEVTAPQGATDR

[12] = test system: PANC13; assay: CellTiter-Glo cell proliferation, patient-derived PANC13 tumorspheres; assay type: cell-based; settings: Homo sapiens, 72 h, three days treatment, read-out: IC50 category
Excerpt: as §2

[13] = test system: MDA-MB231 cells; assay: Invasion in modified Boyden chambers, MDA-MB231 cells; assay type: cell-based, human
Procedure: Effects of Compound-5B on breast cancer cell proliferation, Id-1 expression and invasion in culture. […] The ability of the cells to migrate and invade in modified Boyden chambers was determined. The percentage relative invasion was calculated as the effect on treated cells/vehicle cells×100. Respective controls (vehicle treated cells) were set as 100%.

[14] = molecular target: T2, CYP2C8 (Homo sapiens, UniProt P10632); assay: CYP2C8 inhibition; assay type: in vitro ADME; settings: 10 μM
T2 construct: purchased Eurofins
T2 sequence (P10632 whole entry): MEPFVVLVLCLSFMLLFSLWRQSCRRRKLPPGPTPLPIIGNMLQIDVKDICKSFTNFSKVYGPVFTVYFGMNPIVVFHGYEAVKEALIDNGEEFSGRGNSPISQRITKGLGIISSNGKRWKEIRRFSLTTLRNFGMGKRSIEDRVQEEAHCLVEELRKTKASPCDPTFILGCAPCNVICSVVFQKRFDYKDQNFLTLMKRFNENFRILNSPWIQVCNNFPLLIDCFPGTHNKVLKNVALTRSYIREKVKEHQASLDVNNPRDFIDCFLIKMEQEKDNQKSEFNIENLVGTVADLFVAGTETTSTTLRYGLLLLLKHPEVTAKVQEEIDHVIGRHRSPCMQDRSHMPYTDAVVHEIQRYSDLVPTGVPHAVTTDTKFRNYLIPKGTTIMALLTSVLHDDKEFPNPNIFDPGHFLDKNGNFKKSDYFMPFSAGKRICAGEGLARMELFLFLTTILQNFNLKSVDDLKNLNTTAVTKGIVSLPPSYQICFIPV
Procedure: as §3

For `CCCCCCC(C)(C)c1cc(O)c(C(=O)Nc2ccccc2)c(O)c1` [Compound 5B, 2,6-dihydroxy-4-(2-methyloctan-2-yl)-N-phenylbenzamide], the clearance [1] was “low”, the exposure [1] was “good” and the half-life [1] was “acceptable”. For the same compound, the IC50 ([2]; Homo sapiens, PANC-1, read-out: IC50 category) was < 500 nM, the “improvement in potency (IC50) compared to the parent compound CBD” value ([2]; PANC-1 (by context)) was 38 fold and the plasma protein binding [3] was “high”. The lung metastasis [4] was “inhibits breast cancer metastasis”, the primary tumor growth [5] was “able to inhibit primary tumor growth” and the “binding to the cannabinoid receptors” value [6] was “does not bind”. For the same compound, the “inhibition of 468 kinases” value [7] was “No significant inhibition”, the aqueous solubility [8] was “low” and the “inhibition of Id-1 expression” value [9] was “significant potency”. The IC50 [10] was < 500 nM, the IC50 [11] was 640 to 750 nM and the IC50 [12] was < 500 nM. For the same compound, the “invasion of MDA-MB231 cells” value [13] was “inhibits the invasion” and the “inhibition of CYP2C8” value [14] was “some inhibition”.
